Source: patent publication US20240051956A1, “SOS1 INHIBITORS AND USES THEREOF” (QILU REGOR THERAPEUTICS INC., priority 2020, published 2024)
Read-outs that look alike come from different tables or passages of the source.

Tests used:
[1] = Human liver microsomal stability; type: in vitro ADME; conditions: for half-life: human liver microsomes, read-out: Human liver microsomal stability, T1/2; for stability in human liver microsomal assay: in words, compound I-18 vs present compounds
NCI-H358 = assay: Cell proliferation assay, 3D, CellTiter-Glo 3D; type: cell-based, human; conditions: for IC50: Homo sapiens, read-out: anit-prolif. H358 IC50
Method: b. Cell Proliferation Assay
Low IC50 values are indicative of high potency of the compounds in this assay setting.
Cell proliferation assay is performed in three-dimensional (3D) ultra-low conditions with the human cell line NCI-H358, a human non-small cell lung cancer (NSCLC) cell line with a KRAS G12C mutation.
• 96-well Clear Round Bottom Ultra-Low Attachment Microplate (Corning, Cat. 7007) • 96-well Flat Clear Bottom White Polystyrene TC-treated Microplates (Corning, Cat. 3610) • RPMI-1640 Medium (Gibco, Cat. 22400105) • Fetal Bovine Serum (FBS) (Gibco, Cat. 10099141C) • 0.25% Trypsin-EDTA (Gibco, Cat. 25200056) • Penicillin-Streptomycin (Gibco, Cat. 15140122) • CellTiter-Glo 3D Cell Viability Assay (Promega, Cat. G9683)
NCI-H358 cells (ATCC, Cat. CRL-5807) are grown in cell culture flasks using RPMI medium supplemented with 10% FBS. Cells are incubated at 37° C. and 5% C02 in a humidified atmosphere, with sub-cultivation performed twice a week. Cells are trypsinized, counted and plated in 96-well ultra-low adhesion plates for 3D cell viability determination. The day after plating, serial dilutions of SOS1 inhibitor compounds are made using Tecan D300e Digital Dispenser to evaluate a concentration-dependent effect on cell viability. The concentration of the test compounds covers a range between 5 μM and 0.76 nM with serial 1:3 dilutions in 9 concentrations. 0.5 μL serial dilutions of the compounds are added in duplicates. 3 days later, the CellTiter-Glo 3D Cell Viability Assay is used to measure cell viability effects of SOS1 inhibitor compounds in 3D format. Luminescent intensity is determined using Envision (PerkinElmer). Data is analyzed and IC50 values are calculated using GraphPad Prism.

SOS1 and KRAS G12D = SOS1 and KRAS G12D (Homo sapiens (Human), UniProt Q07889); assay: KRAS::SOS1 AlphaScreen Binding Assay; conditions: SOS1 (564-1049), KRAS G12D (1-169), GDP
Text: a. KRAS::SOS1 AlphaScreen Binding Assay
Low IC50 values of given compounds are indicative of high potency of the SOS1 inhibitor compounds in this assay setting.
• GST-TEV-SOS1 (564-1049) and His-TEV-Avi-KRAS G12D (1-169) are purchased from Viva Biotech (Shanghai) Ltd. • GDP (Sigma, Cat. G7127) • AlphaLISA Glutathione Acceptor Beads (PerkinElmer, Cat. AL109C) • AlphaScreen Streptavidin Donor Beads (PerkinElmer, Cat. 6760002S) • Assay plates: ProxiPlate-384 Plus, White 384-shallow well Microplate (PerkinElmer, Cat. 6008280)
SOS1 inhibitor compounds are diluted to a final start concentration of […]. Serial dilutions of compounds are made using Tecan D300e Digital Dispenser in 9 concentrations with serial 1:3 dilutions. 100 nL of compound solution is transferred to the 384-well assay plate per well, covering a range between 1 μM and 0.15 nM minimum in duplicate. 10 nM (final assay concentration) KRAS G12D, 5 nM (final assay concentration) SOS1 and 10 μM (final assay concentration) GDP are mixed in assay buffer, and 5 μL of KRAS::SOS1 GDP mix is added into the assay plate to the 100 nL of compound solution (final dilution in the assay 1:100, final DMSO concentration 1%). After a 30 min incubation, AlphaLISA Glutathione Acceptor Beads and AlphaScreen Streptavidin Donor Beads are mixed in assay buffer at a concentration of 5 µg/mL (final assay concentration), and 5 μL of bead mix is added into the assay plate. Plates are kept at room temperature in a darkened incubator for 3 h. After a 3 h incubation, the signal is determined using Envision (PerkinElmer). The excitation wavelength is 680 nm, and emission 615 nm. IC50 values are calculated and analyzed using GraphPad Prism.

[2] = 72 h, NCI-H358 (KRAS G12C), 3D ultra-low attachment, 3 days

Chain of SOS1 and KRAS G12D (Q07889 564-1049, stated change not applied): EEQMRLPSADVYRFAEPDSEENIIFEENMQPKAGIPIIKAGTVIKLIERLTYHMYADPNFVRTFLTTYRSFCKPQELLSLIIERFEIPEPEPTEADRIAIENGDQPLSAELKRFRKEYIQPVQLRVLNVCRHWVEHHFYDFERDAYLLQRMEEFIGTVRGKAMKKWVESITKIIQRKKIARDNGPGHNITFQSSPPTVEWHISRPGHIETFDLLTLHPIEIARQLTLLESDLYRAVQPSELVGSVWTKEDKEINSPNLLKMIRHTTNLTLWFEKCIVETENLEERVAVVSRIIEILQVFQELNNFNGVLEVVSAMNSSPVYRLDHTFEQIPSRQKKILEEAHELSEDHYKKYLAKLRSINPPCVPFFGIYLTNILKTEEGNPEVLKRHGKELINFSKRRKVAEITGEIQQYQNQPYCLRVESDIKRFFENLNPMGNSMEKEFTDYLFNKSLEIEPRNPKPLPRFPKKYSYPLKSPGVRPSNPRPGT

Structure (SMILES)	half-life [1]	stability in human liver microsomal assay [1]	IC50 (NCI-H358; [2])	IC50 (NCI-H358; NCI-H358, H358 cells)	IC50 (SOS1 and KRAS G12D)	activity in H358 cellular assay (NCI-H358; in words, compound I-18 vs present compounds)
Cc1nc(N[C@H](C)c2cccc(C(F)(F)F)c2C)c2cn(N3CCOCC3)c(=O)cc2n1 [Example 17, (R)-2-methyl-4-((1-(2-methyl-3-(trifluoromethyl)phenyl)ethyl)amino)-6-morpholinopyrido[4,3-d]pyrimidin-7(6H)-one]	1.83 h	dramatically improved	≤ 100 nM	23 nM	≤ 15 nM	
Cc1nc(N[C@H](C)c2cccc(C(F)(F)F)c2C)c2cn(N3CCOCC3)c(=O)c(F)c2n1 [Example 30]	3.17 h	dramatically improved	≤ 100 nM	28 nM	≤ 15 nM	
Cc1nc(N[C@H](C)c2cccc(C(F)F)c2F)c2cn(N3CCOCC3)c(=O)c(-c3ccc(S(C)(=O)=O)cc3)c2n1 [Example 43, 4-[[(1R)-1-[3-(difluoromethyl)-2-fluoro-phenyl]ethyl]amino]-2-methyl-8-(4-methylsulfonylphenyl)-6-morpholino-pyrido[4,3-d]pyrimidin-7-one]	> 16.7 h	dramatically improved	≤ 100 nM	53 nM	≤ 15 nM	
Cc1nc(N[C@H](C)c2cccc(C(F)F)c2F)c2cn(N3CCOCC3)c(=O)c(-c3ccc(S(C)(=O)=O)nc3)c2n1 [Example 61]	> 16.7 h	dramatically improved	≤ 100 nM	31 nM	≤ 15 nM	
Cc1nc(N[C@H](C)c2cccc(C(F)F)c2F)c2cn(-n3ccnc3)c(=O)c(F)c2n1 [Example 86]			500 to 1000 nM		15 to 150 nM	
Cc1nc(N[C@H](C)c2cccc(C(F)F)c2F)c2cn(C3CCOCC3)c(=O)cc2n1 [Example I-18, reference compound]	0.05 h	very poor stability		164 nM		weaker activity

Now from value to molecule, other results behind:

half-life [1]	stability in human liver microsomal assay [1]	IC50 (NCI-H358; [2])	IC50 (NCI-H358; NCI-H358, H358 cells)	IC50 (SOS1 and KRAS G12D)	Structure (SMILES)	activity in H358 cellular assay (NCI-H358; in words, compound I-18 vs present compounds)
1.4 h	dramatically improved	≤ 100 nM	40 nM	≤ 15 nM	Cc1nc(N[C@H](C)c2cccc(C(F)F)c2F)c2cn(N3CCOCC3)c(=O)cc2n1 [Example 1, 4-[[(1R)-1-[3-(difluoromethyl)-2-fluoro-phenyl]ethyl]amino]-2-methyl-6-morpholino-pyrido[4,3-d]pyrimidin-7-one]	
2.33 h	dramatically improved	≤ 100 nM	49 nM	≤ 15 nM	Cc1nc(N[C@H](C)c2cccc(C(F)F)c2F)c2cn(N3CCOCC3)c(=O)c(F)c2n1 [Example 29, (R)-4-((1-(3-(difluoromethyl)-2-fluorophenyl)ethyl)amino)-8-fluoro-2-methyl-6-morpholinopyrido[4,3-d]pyrimidin-7 (6H)-one]	
0.733 h	dramatically improved	≤ 100 nM	60 nM	≤ 15 nM	Cc1nc(N[C@H](C)c2cccc(C(F)F)c2F)c2cn(N3CCOCC3)c(=O)c(-c3cnn(CCO)c3)c2n1 [Example 53]	
		100 to 500 nM		≤ 15 nM	CNCc1ccccc1-c1csc([C@@H](C)Nc2nc(C)nc3cc(=O)n(N4CCOCC4)cc23)c1 [Example 77, 2-methyl-4-[[(1R)-1-[4-[2-(methylaminomethyl)phenyl]-2-thienyl]ethyl]amino]-6-morpholino-pyrido[4,3-d]pyrimidin-7-one]	
